Measurements as given in patent publication US9734575B2, “Method for assessing cell aging” (CHRONOS THERAPEUTICS LIMITED, priority 2013, dated 2017).

System: AM134bus-5 mutant C. elegans
Test: FUDR treatment (transfer and topical) to prevent second generation progeny in synchronised worm populations on multi-well plates
Type: in vivo, Caenorhabditis elegans
Method: Topical and transfer methods of FUDR application were compared and the optimal concentration of the FUDR on 24 well, 12 well and 6 well plates, assessed.
AM134bus-5 and bus-8 drug sensitive worms were synchronized by bleaching and then plated onto multi-well plates and allowed to develop to adulthood. The adults in half of the wells were transferred to a separate well which had been soaked with varying amounts of FUDR solution using M9 buffer. The remaining wells were treated topically with FUDR.
The cultures were then regularly imaged by bright field microscopy and fed with OP50 when necessary.

Question: `O=c1[nH]c(=O)n([C@H]2C[C@H](O)[C@@H](CO)O2)cc1F` [FUDR, 2′-Deoxy-5-fluorouridine] was tested. Which “progeny after 11 days” value (6 well plates, FUDR 2 μg/ml (25 μl of 10 mg/ml to 5 ml NGM), topical and transfer) did it give?
Answer: The value was “no progeny can be observed”.

Question: And the “lowest effective dose at preventing the development of progeny” value (6 well plates, volume of 10 mg/ml FUDR to 5 ml of NGM, 1, 5, 10, 25 and 50 μl tested)?
Answer: The value was 25 µL.

Question: And the “optimal addition of 10 mg/ml FUDR per well for preventing progeny worms from developing” value (12 well plate (1.7 ug/ml in 2.5 ml NGM))?
Answer: The value was 0.015 mL.

Question: What about the “progeny after 11 days” value (12 well plates, FUDR 1.7 μg/ml (15 μl of 10 mg/ml to 2.5 ml NGM), topical application) of the same compound?
Answer: Its value is “no progeny can be observed”.

Question: What about the “lowest effective dose at preventing the development of progeny” value (12 well plates, volume of 10 mg/ml FUDR to 2.5 ml of NGM, 1, 5, 10, 15 and 20 μl tested) of the same compound?
Answer: The value was 15 µL.

Question: And the “progeny after 11 days” value (24 well plates, FUDR 2 μg/ml (5 μl of 10 mg/ml to 1 ml NGM), topical and transfer method)?
Answer: Its value is “progeny can be observed”.
